Data set [1] deals with TMPRSS6 mRNA. The data set is described as follows: Reduction of TMPRSS6 mRNA expression by different siRNAs in Hep3B cells (20 nM, 96-well). In kind it is cell-based, human. Conditions: 20 nM siRNA + 1 μg/ml AtuFECT, two days after transfection, TMPRSS6 mRNA normalized to ApoB, relative to untreated cells. As to the method: 8000 cells per well were plated in 96-well plates. The following day cells were transfected with 20 nM siRNA and 1 μg/ml AtuFECT. Two days after transfection cells were lysed and TMPRSS6 mRNA levels were determined by q-RT-PCR. TMPRSS6 mRNA levels were normalized to expression levels of the house keeping gene ApoB. An siRNAs against Luciferase was used as non targeting control.

Data set [2] has as its system TMPRSS6 mRNA. The data set is described as follows: Dose-response of siRNAs against TMPRSS6 in Hep3B cells. Format: cell-based, human. Conditions: siRNA 100 nM-0.03 nM + 1 μg/ml AtuFECT, two days after transfection, TMPRSS6 mRNA normalized to ApoB, from dose-response curves FIG. 35; for Max inhibition: relative to 100 nM Luciferase-control siRNA. As to the method:
8000 cells per well were plated in 96-well plates. The following day cells were transfected with siRNA in indicated concentrations (100 nM-0.03 nM) and 1 μg/ml AtuFECT. Two days after transfection cells were lysed and TMPRSS6 mRNA levels were determined by q-RT-PCR. TMPRSS6 mRNA levels were normalized to expression levels of the house keeping gene ApoB. Average inhibition and standard deviation of triplicate values relative to cells treated with 100 nM of a non-targeting Luciferase-control siRNA are shown in FIG. 35.

In data set [3] the test system is TMPRSS6 mRNA. Nature of the data set: Dose response of TMPRSS6 nucleic acids for inhibition of TMPRSS6 expression in human Hep3B cells. The conditions noted are these: 30-0.003 nM nucleic acid (Luciferase 30 and 10 nM) + 1 μg/ml AtuFECT, two days, normalized to PTEN. In kind it is cell-based. As to the method:
Cells were plated at a cell density of 150,000 cells per 6 well dish. The following day cells were transfected with 1 μg/ml AtuFECT (50:50 formulation of cationic lipid Atufect01 and fusogenic lipid DPhyPE) and different amounts of TMPRSS6 nucleic acids (30; 10; 3; 1; 0.3; 0.1, 0.003 nM, respectively) as depicted by the X-axis of the graph in FIG. 2. For non targeting control samples, cells were transfected with 30 and 10 nM nucleic acid for Luciferase. Two days after the transfection cells were lysed and mRNA levels were determined by q-RT-PCR. TMPRSS6 mRNA levels were normalized to the expression levels of the house keeping gene PTEN. […] Sequences of RNAi molecules are depicted in Table 1.

The target in data set [4] is T1, Asialoglycoprotein receptor (ASGP-R) (Homo sapiens, UniProt P07306+P07307).
T1 sequence (P07306 1-291): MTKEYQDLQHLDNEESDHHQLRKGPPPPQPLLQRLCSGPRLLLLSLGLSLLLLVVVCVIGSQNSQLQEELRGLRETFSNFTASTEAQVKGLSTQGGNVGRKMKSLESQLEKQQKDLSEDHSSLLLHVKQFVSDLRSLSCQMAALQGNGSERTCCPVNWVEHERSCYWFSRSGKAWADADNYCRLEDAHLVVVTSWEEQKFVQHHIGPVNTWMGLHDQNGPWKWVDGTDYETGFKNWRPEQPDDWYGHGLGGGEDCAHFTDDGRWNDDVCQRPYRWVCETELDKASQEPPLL
T1 sequence (P07307 1-311): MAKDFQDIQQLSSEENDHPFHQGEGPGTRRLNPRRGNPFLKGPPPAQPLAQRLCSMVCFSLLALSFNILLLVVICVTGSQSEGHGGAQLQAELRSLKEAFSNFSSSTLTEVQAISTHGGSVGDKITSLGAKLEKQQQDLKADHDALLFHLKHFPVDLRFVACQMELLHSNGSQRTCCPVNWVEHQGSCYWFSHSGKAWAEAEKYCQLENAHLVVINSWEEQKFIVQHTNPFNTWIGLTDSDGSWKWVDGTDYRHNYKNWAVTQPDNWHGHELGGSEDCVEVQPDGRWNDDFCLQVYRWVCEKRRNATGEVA
The conditions noted are these: higher affinity; cited from earlier work.

Oligonucleotides are written 5' to 3', each unit as a sugar letter and its base; * is a phosphorothioate linkage, no mark a phosphodiester; rarer units and linkages stand in square brackets, end groups in braces. Plain capitals give the bases only. m = 2'-O-methyl; f = 2'-fluoro

These results are taken from US20250025488A1, “NUCLEIC ACIDS FOR INHIBITING EXPRESSION OF TMPRSS6 AND IRON CHELATORS” (SILENCE THERAPEUTICS GMBH, priority 2018, published 2025).

What is called IC50 is the point on the concentration scale where inhibition reaches its midpoint.

On to “TMPRSS-SR-27: siRNA against TMPRSS6, SEQ ID NO 177/178 (chain 1 mAfGmUfAmGfUmAfGmCfUmGfGmGfGmAfAmGfUmA; chain 2 fUmAfCmUfUmCfCmCfCmAfGmCfUmAfCmUfAmCfU)”, for which the “kd at 20 nM as shown in FIG. 34” value in data set [1] is recorded as 84%. In data set [2], the IC50 came to 2.8 nM and the Max inhibition is on record as 94%.
On to “TMPRSS-hcm-25: siRNA against TMPRSS6, SEQ ID NO 211/212 (chain 1 AGUUUCUCUCAUCCAGGCC; chain 2 GGCCUGGAUGAGAGAAACU; chain 1: sugars from the 5' end mfmfmfmfmfmfmfmfmfm, backbone not given here; chain 2: sugars from the 5' end fmfmfmfmfmfmfmfmfmf, backbone not given here)”, for which, in data set [1], the “kd at 20 nM as shown in FIG. 34” value is 85%. In addition, in data set [2], the concentration for half-maximal inhibition (IC50) turned out to be 4.6 nM and the Max inhibition is 87%.
“Luciferase nucleic acid: non targeting control nucleic acid for Luciferase, SEQ ID NO 31/32 (chain 1 UCGAAGUAUUCCGCGUACG; chain 2 CGUACGCGGAAUACUUCGA; listed as RNA, chemistry not given here) [reference compound]”: the “TMPRSS6 mRNA expression” value in data set [3] is on record as “did not affect TMPRSS6 mRNA levels”.
With `CC(=O)N[C@H]1C(O)O[C@H](CO)[C@H](O)[C@@H]1O` (stereo partly drawn) [N-Acetyl-D-Galactosylamine (GalNAc), 2-(Acetylamino)-2-deoxy-D-galactopyranose], in data set [4], the “Affinity of ASGP-R for GalNAc relative to D-Gal” value is 50 fold.
For the compound “TMPRSS-hc-18: siRNA against TMPRSS6, SEQ ID NO 199/200 (chain 1 UUUUCUCUUGGAGUCCUCA; chain 2 UGAGGACUCCAAGAGAAAA; chain 1: sugars from the 5' end mfmfmfmfmfmfmfmfmfm, backbone not given here; chain 2: sugars from the 5' end fmfmfmfmfmfmfmfmfmf, backbone not given here)”, the “kd at 20 nM as shown in FIG. 34” value in data set [1] is reported as 90%. In addition, in data set [2], the half-inhibitory concentration (IC50) was found to be 4.6 nM and the Max inhibition stood at 95%.
The like results for “TMPRSS-hc-23: siRNA against TMPRSS6, SEQ ID NO 207/208 (chain 1 CUGUUCUGGAUCGUCCACU; chain 2 AGUGGACGAUCCAGAACAG; chain 1: sugars from the 5' end mfmfmfmfmfmfmfmfmfm, backbone not given here; chain 2: sugars from the 5' end fmfmfmfmfmfmfmfmfmf, backbone not given here)” were, in that order, 70%, 4.6 nM and 83%.
With “TMPRSS-hc-22: siRNA against TMPRSS6, SEQ ID NO 205/206 (chain 1 mAfGmAfUmCfCmUfGmGfGmAfGmAfAmGfUmGfGmC; chain 2 fGmCfCmAfCmUfUmCfUmCfCmCfAmGfGmAfUmCfU)”, the “kd at 20 nM as shown in FIG. 34” value in data set [1] turned out to be 73%. Moreover, in data set [2], the half-inhibitory concentration (IC50) was found to be 8.1 nM and the Max inhibition was 99%.
Taken in the same sequence, the figures for “TMPRSS-hc-17: siRNA against TMPRSS6, SEQ ID NO 197/198 (chain 1 AUCUUCUGGGCUUUGGCGG; chain 2 CCGCCAAAGCCCAGAAGAU; chain 1: sugars from the 5' end mfmfmfmfmfmfmfmfmfm, backbone not given here; chain 2: sugars from the 5' end fmfmfmfmfmfmfmfmfmf, backbone not given here)” were 79%, 2.4 nM and 82%.
“TMPRSS-hcr-26: siRNA against TMPRSS6, SEQ ID NO 213/214 (chain 1 GUACCCUAGGAAAUACCAG; chain 2 CUGGUAUUUCCUAGGGUAC; chain 1: sugars from the 5' end mfmfmfmfmfmfmfmfmfm, backbone not given here; chain 2: sugars from the 5' end fmfmfmfmfmfmfmfmfmf, backbone not given here)”: the “kd at 20 nM as shown in FIG. 34” value in data set [1] is given as 98%. Moreover, in data set [2], the half-maximal inhibitory concentration (IC50) was 3.5 nM and the Max inhibition was found to be 100%.
Take “TMPRSS6-hcm9: siRNA, SEQ ID NO 17/18, alternating 2′OMe/2′F; TMP01 = strands TMPJH01A/TMPJH01B, same chemistry (chain 1 AACCAGAAGAAGCAGGUGA; chain 2 UCACCUGCUUCUUCUGGUU; chain 1: sugars from the 5' end mfmfmfmfmfmfmfmfmfm, backbone not given here; chain 2: sugars from the 5' end fmfmfmfmfmfmfmfmfmf, backbone not given here; further chemistry not fully specified)”: the “TMPRSS6 mRNA expression” value in data set [3] is “highest reduction of TMPRSS6 mRNA expression”.
On to “TMPRSS-SR-5: siRNA against TMPRSS6, strands hcTMP-SR5-A/B, SEQ ID NO 141/142 (chain 1 mGfGmUfGmCfUmGfAmGfGmAfCmGfCmCfCmUfGmG; chain 2 fCmCfAmGfGmGfCmGfUmCfCmUfCmAfGmCfAmCfC)”, for which the “kd at 20 nM as shown in FIG. 34” value in data set [1] stood at 85%. In data set [2], the IC50 turned out to be 8.4 nM and the Max inhibition is 100%.
Consider “TMPRSS-SR-21: siRNA against TMPRSS6, SEQ ID NO 167/168 (chain 1 mAfGmCfUmGfGmGfGmAfAmGfUmAfCmGfGmGfGmU; chain 2 fAmCfCmCfCmGfUmAfCmUfUmCfCmCfCmAfGmCfU)”, for which the “kd at 20 nM as shown in FIG. 34” value in data set [1] was found to be 92%. In addition, in data set [2], the half-inhibitory concentration (IC50) is 5.8 nM and the Max inhibition was 100%.
“TMPRSS-SR-16: siRNA against TMPRSS6, strands hcTMP-SR16-A/B, SEQ ID NO 158 (as printed)/160 (chain 1 CUCAGCACCCCGUACUUCC; chain 2 UCAGCACCCCGUACUUCCC; listed as RNA, chemistry not fully specified)”: in data set [1], the “kd at 20 nM as shown in FIG. 34” value is given as 88%. In data set [2], the half-maximal inhibitory concentration (IC50) was 8.4 nM and the Max inhibition came to 100%.
For the compound “TMPRSS-hc-19: siRNA against TMPRSS6, SEQ ID NO 201/202 (chain 1 mGfAmAfUmAfGmAfCmGfGmAfGmCfUmGfGmAfGmU; chain 2 fAmCfUmCfCmAfGmCfUmCfCmGfUmCfUmAfUmUfC)”, the “kd at 20 nM as shown in FIG. 34” value in data set [1] came to 89%. For the same compound, in data set [2], the half-maximal inhibitory concentration (IC50) came out at 6.1 nM and the Max inhibition came to 100%.
On to “TMPRSS6-hcmr-24: siRNA against TMPRSS6, SEQ ID NO 209/210 (chain 1 mCfUmCfAmCfCmUfUmGfAmAfGmGfAmCfAmCfCmU; chain 2 fAmGfGmUfGmUfCmCfUmUfCmAfAmGfGmUfGmAfG)”, for which the “kd at 20 nM as shown in FIG. 34” value in data set [1] is 70%. In addition, in data set [2], the IC50 was found to be 0.8 nM and the Max inhibition is recorded as 73%.
Take “TMPRSS-hc-16: siRNA against TMPRSS6, SEQ ID NO 195/196 (chain 1 mUfAmUfUmCfCmAfAmAfGmGfGmCfAmGfCmUfGmA; chain 2 fUmCfAmGfCmUfGmCfCmCfUmUfUmGfGmAfAmUfA)”: the “kd at 20 nM as shown in FIG. 34” value in data set [1] was determined as 91%. In addition, in data set [2], the IC50 came to 7.7 nM and the Max inhibition is recorded as 100%.
